Measured values taken from US20070010484A1, “Method for treating or inhibiting the effects of injuries or diseases that result in neuronal degeneration and method for promoting neurogenesis” (YEDA RESEARCH AND DEVELOPMENT CO. LTD., priority 2003, published 2007).
Entries after “also recorded” stand apart in the source; their conditions may differ.

Experiments:
PC12 cells [1] = assay: LPA-induced neurite retraction in differentiated PC12 cells; format: cell-based, rat
Procedure: PC12 cell line: Rat pheochromocytoma (PC12) cells were cultured in DMEM containing 8% horse serum and either 8% FCS (culture medium) or 1% FCS (differentiation medium), and antibiotics. For assays of neurite outgrowth, the cells were plated (10^5 cell/well) on 13-mm glass coverslips, precoated with collagen (500 μg/ml) in 24-well plates. Treatment of PC12 cells with lysophosphatidic acid (LPA). PC12 cells were placed and were differentiated for 3 days in the presence of 100 ng/ml NGF, in collagen-precoated culture dishes (Corning). […] The cells were then fixed with 4% paraformaldehyde (PFA) and analyzed by Nomarski microscopy. The longest neurite of each cell was measured and the results are expressed as their mean±SEM.

PC12 cells [2] = assay: Neurite outgrowth assay in NGF-stimulated PC12 cells; format: cell-based, rat; conditions: PC12 cells on collagen, NGF 10 ng/ml, sulfated CSPG-DSs added; mean±SD
Procedure: PC12 cell line: Rat pheochromocytoma (PC12) cells were cultured in DMEM containing 8% horse serum and either 8% FCS (culture medium) or 1% FCS (differentiation medium), and antibiotics. For assays of neurite outgrowth, the cells were plated (10^5 cell/well) on 13-mm glass coverslips, precoated with collagen (500 μg/ml) in 24-well plates. Neurite outgrowth assays: PC12 cells were cultured for 24-72 h while being stimulated with 10 ng/ml NGF, with or without CSPG-DSs. Cell morphology was visualized under a phase-contrast microscope and neurite lengths were measured using ImagePro. At least 200 cells were measured for each condition.

[3] = system: Organotypic hippocampal slice cultures (OHSC); assay: Organotypic hippocampal slice cultures, propidium iodide staining; format: cell-based; conditions: rat OHSCs, 2.5 μg/ml or 25 μg/ml, 24 h
Procedure: Organotypic hippocampal slice cultures (OHSC): OHSC were prepared as described (Franklin and Paxinos, 1997) from rats brains (Lewis aged 8-10 days) CSPG-DSs were added to the OHSCs for 24 h. Propidium iodide (5 μg/ml; Sigma) was then added to the medium for 30 min. The brain slices were examined under a Zeiss laser-scanning confocal microscope (LSM510) or a Zeiss Axioplane 100 fluorescence light microscope.

[4] = system: retinal ganglion cells (RGCs)
Procedure: Glutamate-induced toxicity: C57Bl/6J mice were anesthetized by intraperitoneal (i.p.) injection of ketamine (80 mg/kg; Fort Dodge Laboratories, Fort Dodge, Iowa) and xylazine (16 mg/kg; Vitamed, Israel). Their right eyes were punctured with a 27 gauge needle in the upper part of the sclera and a hamilton syringe with a 30-gauge needle was inserted as far as the vitreal body. Each mouse was injected with a total volume of 1 μl saline containing L-glutamate (100 nmol). Mice in one group were also injected intravenously (i.v.) with 5 μg of CSPG-DSs in 200 μl saline (Schori, 2001).
Labeling of retinal ganglion cells: Mice were anesthetized as described above and placed in a stereotactic device. The skull was exposed and the bregma identified and marked. […] A window was drilled in the scalp above the designated coordinates in the right and left hemispheres. […]
Assessment of retinal ganglion cell survival: Retinas were examined for labeled retinal ganglion cells (RGCs) by fluorescence microscopy. Labeled cells from four to six fields of identical size (0.076 mm^2) were counted. […] Cells were counted under the fluorescence microscope (magnification ×800) by observers blinded to the treatment received by the mice. The average number of RGCs per field was calculated for each retina. The number of RGCs in the contralateral (uninjured) eye was also counted and served as an internal control.

IFN-γ = IFN-γ secretion by anti-CD3-activated T cells, ELISA; format: cell-based, human; conditions: 2 h pretreatment, then anti-CD3 activation 24 h
Procedure: Assay of IFN-γ secretion. Human T cells were purified and maintained in culture (RPMI containing 10% FCS, 1% pyruvate, 1% glutamine, 1% antibiotics, in a humidified atmosphere of 7% CO2in air), and the cells were activated for 2 h with the indicated concentrations of CSPG-DS. In order to stimulate the cells to secrete cytokines, they were replated (1×10^6 cells in 0.5 ml culture medium per well) in 24-well plates precoated with 1 μg/ml immobilized anti-CD3 mAb (non-tissue-culture grade). After 24 h the supernatants were collected and their IFN-γ contents determined by ELISA, using anti-IFN-γ mAb (Pharmingen, San Diego, Calif.) according to the manufacturer's instructions.

TNF-α = TNF-α secretion by anti-CD3-activated T cells, ELISA; format: cell-based, human; conditions: 2 h pretreatment, then anti-CD3 activation 24 h
PC12 cells [5] = assay: PC12 cell viability after glutamate, XTT assay; format: cell-based, rat; conditions: disaccharides 1 to 50 μg/ml for 45 min, glutamate 10^−3 M 15 min, XTT after 24 h
Procedure: PC12 cell line. Rat pheochromocytoma (PC12) cells were cultured in DMEM containing horse serum and FCS, both at 8% (culture medium) or at 1% (differentiation medium).
Cell viability assay. PC12 cells were seeded on collagen-coated 96-well plates at a density of 10^4 cells per well (in differentiation medium containing 100 ng/ml NGF). The cells were incubated with CSPG-DS or other disaccharides at the indicated concentrations for 45 min, then washed with PBS and exposed to glutamate (10^−3 M) for 15 min. The glutamate solution was washed away and replaced with DMEM for a further 24 h of incubation. The number of viable cells was then determined with the XTT viability kit according to the manufacturer's instructions.

MHC II = MHC II expression in microglia; format: cell-based
[6] = PC12 cells with LPA plus CSPG-DSs

CC(=O)N[C@H]1C(O)O[C@H](COS(=O)(=O)O)[C@H](O)[C@@H]1O[C@@H]1OC(C(=O)O)=C[C@H](O)[C@H]1O (stereo partly drawn) [CSPG-DS, 2-acetoamido-2-deoxy-3-O-(β-D-gluco-4-enepyranosyluronic acid)-6-O-sulfo-D-galactose]
LPA-induced neurite collapse / retraction (PC12 cells [1]; NGF-differentiated PC12 cells, LPA 1 μg/ml 20 min together with CSPG-DSs (5 or 50 μg/ml)): dose-dependent reversal of the retraction process; also recorded: prevented | mean neurite length (PC12 cells [1]; [6]): beneficial effect | number of neurite-bearing cells (PC12 cells [1]; [6]): beneficial effect | mean neurite length (PC12 cells [2]): 107±7.8 μm | neuronal loss (propidium iodide staining) [3]: significantly reduced | neuronal survival in the absence of glutamate ([4]; intravitreal injection of CSPG-DSs, no glutamate): no effect | number of surviving RGCs per mm2 ([4]; mice, intravitreal toxic glutamate, single i.v. injection of sulfated CSPG-DSs (5 μg), assessed 1 week later, mean±SEM): 1965±166 per mm2 | secretion of IFN-γ (IFN-γ): significant reduction | secretion of TNF-α (TNF-α): significant reduction | survival of PC12 cells exposed to glutamate (PC12 cells [5]): protected PC12 cells from glutamate toxicity | MHC II expression in microglia (MHC II): activate microglia to express MHC II
